From US10166235B2, “Kinetin/zeatin topical formulation” (Dow Pharmaceutical Sciences, Inc., priority 2013, dated 2019)

What was measured:
[1] = Solubility of kinetin or zeatin when both kinetin and zeatin are dissolved, determined by HPLC
Method: (§1) Solubilization of kinetin and zeatin was determined by HPLC.

[2] = Comparison with prior art formulations: dissolved kinetin or zeatin in GDM-12, Transcutol, isostearic acid and mixtures by HPLC; conditions: for Synergistic Increase in Solubility %: zeatin
Method: (§2) Kinetin was combined and mixed in separate beakers containing GDM-12, Transcutol, and Isostearic Acid, and the concentration of dissolved kinetin in each beaker was determined by HPLC. Kinetin was then combined and mixed in separate beakers containing GDM-12 and Transcutol (1:1) and containing GDM-12 and Isostearic acid.
as §2, with “Zeatin” for “Kinetin”, “zeatin” for “kinetin”

[3] = distilled water / water; cited from earlier work
[4] = Solubility of kinetin or zeatin alone in GDM-12, GDO-12, isostearic acid and 50:50 mixtures, determined by HPLC; conditions: for calculated solubility: based on independent solubility in each solvent
Method: as §1

[5] = solvent GDM-12 + Isostearic Acid
[6] = solvent GDM-12 + Transcutol (1:1)
[7] = 50% GDM-12 and 50% isostearic acid
[8] = 50% GDO-12 and 50% isostearic acid

SMILES: C/C(=C\CNc1ncnc2nc[nH]c12)CO [Zeatin, (E)-2-methyl-4-(7H-purin-6-ylamino)but-2-en-1-ol]
- calculated solubility ([1]; both kinetin and zeatin combined, 50% GDM-12 and 50% isostearic acid): 0.19 wt %
- increase over the calculated solubility ([1]; both kinetin and zeatin dissolved, 50% GDM-12 and 50% isostearic acid): 121%
- solubility ([1]; both kinetin and zeatin dissolved, in 50% GDM-12 and 50% isostearic acid): 0.42 % w/w
- solubility ([1]; both kinetin and zeatin dissolved, in 100% GDM-12): 0.10 % w/w
- solubility ([1]; both kinetin and zeatin dissolved, in 100% isostearic acid): 0.28 % w/w
- Zeatin % w/w Experimental ([2]; solvent GDM-12): .119 % w/w
- Zeatin % w/w Calculated [2, 5]: .229 % w/w
- Zeatin % w/w Experimental [2, 5]: .440 % w/w
- Zeatin % w/w Calculated [2, 6]: .345 % w/w
- Zeatin % w/w Experimental [2, 6]: .365 % w/w
- Zeatin % w/w Experimental ([2]; solvent Isostearic Acid): .299 % w/w
- Zeatin % w/w Experimental ([2]; solvent Transcutol): .570 % w/w
- Synergistic Increase in Solubility % [2, 5]: 92%
- Synergistic Increase in Solubility % ([2]; solvent GDM-12 + Isostearic Acid, listed as zeatin): 92%
- Synergistic Increase in Solubility % [2, 6]: 0%
- Synergistic Increase in Solubility % ([2]; solvent GDM-12 + Transcutol (1:1), listed as zeatin): does not provide a synergistic increase
- solubility in water [3]: practically insoluble
- increase over the calculated solubility [4, 7]: 109%
- calculated solubility [4, 7]: 0.21 wt %
- increase over the calculated solubility [4, 8]: 100%
- calculated solubility [4, 8]: 0.20 wt %
- solubility ([4]; in 50% GDM-12 and 50% isostearic acid): 0.44 % w/w
- solubility ([4]; in 50% GDO-12 and 50% isostearic acid): 0.40 % w/w
- solubility ([4]; in 100% GDM-12 (PEG-12 Glycerol dimyristate)): 0.12 % w/w
- solubility ([4]; in 100% GDO-12 (PEG-12 Glycerol dioleate)): 0.10 % w/w
- solubility ([4]; in 100% isostearic acid): 0.30 % w/w

SMILES: c1coc(CNc2ncnc3nc[nH]c23)c1 [Kinetin, N^6-furfuryladenine]
- Kinetin % w/w Experimental ([2]; solvent GDM-12): .164 % w/w
- Kinetin % w/w Calculated [2, 5]: .229 % w/w
- Kinetin % w/w Experimental [2, 5]: .422 % w/w
- Kinetin % w/w Calculated [2, 6]: .281 % w/w
- Kinetin % w/w Experimental [2, 6]: .287 % w/w
- Kinetin % w/w Experimental ([2]; solvent Isostearic Acid): .299 % w/w
- Kinetin % w/w Experimental ([2]; solvent Transcutol): .397 % w/w
